Experimental data published in article PMC9376946, “Peptide-RNA Coacervates as a Cradle for the Evolution of Folded Domains” (Journal of the American Chemical Society, 2022).
“And” between values parts separate entries of the source, which are not always exact repeats. Identical values can stand only once.

Experiments:
polyU [1] = assay: DEER of peptides in the presence of polyU; type: binding; details: for local concentration of detected spins: from DEER background decay, calibration curve
Description: For pulse EPR measurements, 5–6 μL of peptide in D2O with 20% glycerol-d8 was introduced into a quartz capillary of 0.9 mm i.d. and 1.1 mm o.d. and sealed with Critoseal at one end. The samples with polyU (and thus, the potential for coacervates) were flash-frozen in liquid nitrogen after incubating at room temperature for 15–20 min. Samples without polyU were directly inserted into the spectrometer at 25 K.
Pulse EPR measurements were carried out at the W band (94.9 GHz) on a home-built spectrometer at 25 K.[22]−[24] Echo intensities were measured with a Hahn echo sequence (π/2νobs – τ – πνobs – τ – echo) using π/2 and π pulses of 20–25 ns and 40–50 ns, respectively, and τ = 500 ns. Echo decays were measured under the same conditions with an initial τ value of 500 ns. DEER measurements were recorded using the four-pulse DEER sequence (π/2νobs – τ1 – πνobs – (τ1 + t) – πνpump – (τ2-t) – πνobs – τ2 – echo)[25],[26] with a chirp pump pulse[23] using eight-step phase cycling and monitoring the echo intensity as a function of increasing t. The maximum intensity of the nitroxide spectrum was set to 94.9 GHz, the observer pulses were set to 94.85 GHz, and the π/2 and π pulse durations were 35–40 and 70–80 ns. The chirp pump pulse frequency was 94.88–94.98 GHz with a duration of 128 ns. The repetition time was 10 ms. The samples without polyU and a concentration above 50 μM were averaged for 1–5 h. All the samples with a concentration ≤50 μM and all the samples in the presence of polyU were averaged for 6–14 h. The DEER data were analyzed using the DeerAnalysis 2018[27] program with Tikhonov regularization[28] and also verified with DEERNet.[29] For DeerAnalysis, the background was fitted with a homogenous three-dimensional distribution. The calculated distance distributions were obtained from mtsslSuite[30] using maleimide TEMPO (M-TEMPO) as the ligand, and 200 rotamer conformations were generated using clash treatment set to “loose”.
We carried out DEER measurements on the series of samples with 150 μM PA-12 and varying amounts of polyU (Figure 5A). DEER traces were analyzed in terms of several parameters: (i) the modulation depth, Δ, which gives information about the amount of dimers present; (ii) the slope of the background decay, which gives information on the average local concentration of the observed spins;[36],[40] and (iii) the SNR, which indicates how many spins were observed. […] The decrease in the background decay slope and SNR are consistent with the observed reduction in echo intensity (Figure 4A). We therefore conclude that the observed DEER modulation arose from the unbound PA-12 dimers, whereas the polyU-bound PA-12 could not be detected, as discussed in the description of the echo decays. As the polyU concentration increases, the PA-12 concentration in the dispersed phase decreases and therefore the dimer population decreases as well (eq 1), ultimately resulting in the disappearance of the modulation at about 0.5 mg/mL polyU.
We summarized our experimental observations in Figure 5B, where we plot the decrease degree (in %) in the background decay, the echo intensity, and the modulation depth as a function of polyU concentration. For all parameters, the graphs show a similar linear behavior in the high PA/polyU regime below 0.5 mg/mL polyU. […] At 0.5 mg/mL polyU, an inflection point is detected: Above 0.5 mg/mL polyU, population II reaches a plateau and we have a small gain in echo intensity and background decay, but a large gain in modulation depth. From this series of experiments, we conclude that PA bound to polyU has restricted motion and that dimers of PA exist also when bound to polyU within the coacervate. We determined the local concentration of the spins contributing to the DEER traces in the PA/polyU mixtures from a calibration curve generated from the background decay slopes of the DEER data of PA-12 in the absence of polyU (Figure S10D), and the results are given in Table 2. […]

polyU [2] = assay: Coacervate (droplet) formation with polyU, optical microscopy; type: physicochemical; details: for coacervate formation with polyU: 150 μM, 50 mM MES pH 5.6
Description: Optical microscopy images of phase-separated samples were taken at the de Picciotto Cancer Cell Observatory Life Sciences Core Facilities (Weizmann Institute of Science) using a 100× objective (oil immersion) on a Leica DMI8 microscope with differential interface contrast. We used 1–2 μL of the sample to make a small drop in an imaging chamber produced by attaching a coverslip to a clean glass slide using a thin strip of double-sided tape (AJ Sign World). Images were processed using the software package Fiji (NIH).
Lyophilized, spin-labeled peptides were dissolved in Milli-Q water and centrifuged at 4000 rpm for 10 min to remove insoluble aggregates. The soluble fractions were used to prepare stock solutions of 250–500 μM peptide. Labeled peptide concentrations were determined by comparing the area under the curve of the EPR signal against that of standard solutions of 10–285 μM TEMPO. For the EPR measurements in D2O, 200 μL of the stock solution was lyophilized and re-dissolved in D2O. The concentration of the unlabeled peptide stock solutions was determined using the bicinchoninic acid assay (Thermo Fisher Scientific) and ranged from 0.8 to 1.2 mM peptide. A stock solution of 500 mM MES, pH 5.6 was used to adjust all samples to a final concentration of 50 mM MES, pH 5.6. Aliquots of 10 mg/mL polyuridylic acid (polyU; Sigma Aldrich) were prepared in Milli-Q water and diluted as necessary. For CW-EPR measurements, a quartz capillary of 0.6 mm i.d. and 0.84 mm o.d. was filled with 7–8 μL of the sample and sealed with Critoseal (Fisherbrand, Fisher Scientific) at one end. A single capillary was placed in an X-band EPR tube of 2 mm i.d. and 2.4 mm o.d. for measurements, except for spin concentration below 50 μM, where two capillaries were used.
Each sample was freshly prepared and the time to collect […] CW-EPR data was 30–40 min.

## RIRRASVEELTCVPGIGPRLARRILERLA [PA-12, Precursor-Arg peptide in which position 12 has been modified with a cysteine and attached to an M-TEMPO spin label]
polyU [1]; 30 μM PA-12, 1 mg/mL polyU, corrected for 40% component I
  maximum modulation depth corrected for free PA: 9.5%
polyU [1]; 30 μM PA-12, 1 mg/mL polyU, local concentration 25 μM
  DEER modulation depth (Δ) with polyU: 5.7%
polyU [1]; 100 μM PA-12, 2 mg/mL polyU
  DEER modulation depth with polyU (in words): higher modulation depth than the sample with 1 mg/mL polyU
polyU [1]; 150 μM PA-12, 0.5 mg/mL polyU
  DEER modulation with polyU (in words): modulation could no longer be detected
polyU [1]; 150 μM PA-12, 1 mg/mL polyU
  DEER modulation depth (Δ) with polyU: 2%
  DEER modulation with polyU (in words): modulation reappeared again
polyU [1]; PA-12 30 μM / polyU 1 mg/mL
  local concentration of detected spins: 25 µM and 25 ± 2 µM
polyU [1]; PA-12 100 μM / polyU 1 mg/mL
  local concentration of detected spins: 48 ± 4.5 µM
polyU [1]; PA-12 100 μM / polyU 2 mg/mL
  local concentration of detected spins: 53 ± 5 µM
polyU [1]; PA-12 150 μM / polyU 0.1 mg/mL
  local concentration of detected spins: 91 ± 8 µM
polyU [1]; PA-12 150 μM / polyU 0.2 mg/mL
  local concentration of detected spins: 75 ± 7 µM
polyU [1]; PA-12 150 μM / polyU 0.35 mg/mL
  local concentration of detected spins: 45 ± 4 µM
polyU [1]; PA-12 150 μM / polyU 0.5 mg/mL
  local concentration of detected spins: 2.3 µM and 2.3 ± 2 µM
polyU [1]; PA-12 150 μM / polyU 1 mg/mL
  local concentration of detected spins: 23 µM and 23 ± 2 µM
polyU [2]; 50 μM PA-12 and above, 1 mg/mL polyU
  droplet formation with polyU: a significant number of droplets
polyU [2]; 0.35 or 0.5 mg/mL polyU
  coacervate formation with polyU: only a few tiny droplets were observed
polyU [2]; 1 or 2 mg/mL polyU
  coacervate formation with polyU: readily form coacervates
